Measured values from patent publication US20250002450A1, “CATIONIC STEROID COMPOUNDS, METHOD OF OBTAINING THEREOF, FORMULATIONS COMPRISING THEREOF AND THEIR USES” (UNIVERSIDADE DO PORTO, priority 2021, published 2025).

Legend:
E. coli SA/2 (ESBL) = assay: Kirby-Bauer disk diffusion; type: cell-based; conditions: 15 μg per disk
Description: (§1) An initial screening of the antibacterial activity of the compounds was performed by the Kirby-Bauer disk diffusion method, as recommended by the Clinical and Laboratory Standards Institute (CLSI). Briefly, sterile 6 mm blank paper disks (Oxoid, Basingstoke, England) impregnated with 15 μg of each compound were placed on inoculated MH agar plates. A blank disk with dimethylsulfoxide (DMSO) was used as a negative control. MH inoculated plates were incubated for 18-20 h at 37 degrees C. At the end of incubation, the inhibition halos where measured. The MIC was used to determine the antibacterial activity of each compound, in accordance with the recommendations of the CLSI. Two-fold serial dilutions of the compounds were prepared in Mueller-Hinton Broth 2 (MHB2—Sigma-Aldrich, St. Louis, MO, USA) within the concentration range of 0.062-64 μg/mL. CTX ranging between 0.031-16 μg/mL was used as a control. Sterility and growth controls were included in each assay. Purity checks and colony counts of the inoculum suspensions were also performed in order to ensure that the final inoculum density closely approximates the intended number (5×10^5 CFU/mL). The MIC was determined as the lowest concentration of compound that inhibited growth of the bacteria. The MBC was assessed by spreading 10 μL of culture collected from wells showing no visible growth on MH agar plates. […] These assays were performed in duplicate.

[1] = test system: Escherichia coli ATCC 25922; assay: Kirby-Bauer disk diffusion; type: cell-based; conditions: 15 μg per disk
Description: as §1

[2] = test system: Pseudomonas aeruginosa ATCC 27853; assay: Kirby-Bauer disk diffusion; type: cell-based; conditions: 15 μg per disk
Description: as §1

[3] = test system: Staphylococcus aureus ATCC 29213; assay: Kirby-Bauer disk diffusion; type: cell-based; conditions: 15 μg per disk
Description: as §1

S. aureus 66/1 (MRSA) = assay: Kirby-Bauer disk diffusion; type: cell-based, Staphylococcus aureus; conditions: 15 μg per disk
Description: An initial screening of the antibacterial activity of the compounds was performed by the Kirby-Bauer disk diffusion method, as recommended by the Clinical and Laboratory Standards Institute (CLSI). Briefly, sterile 6 mm blank paper disks (Oxoid, Basingstoke, England) impregnated with 15 μg of each compound were placed on inoculated MH agar plates. A blank disk with dimethylsulfoxide (DMSO) was used as a negative control. MH inoculated plates were incubated for 18-20 h at 37 degrees C. At the end of incubation, the inhibition halos where measured. The MIC was used to determine the antibacterial activity of each compound, in accordance with the recommendations of the CLSI. Two-fold serial dilutions of the compounds were prepared in Mueller-Hinton Broth 2 (MHB2—Sigma-Aldrich, St. Louis, MO, USA) within the concentration range of 0.062-64 μg/mL. CTX ranging between 0.031-16 μg/mL was used as a control. Sterility and growth controls were included in each assay. Purity checks and colony counts of the inoculum suspensions were also performed in order to ensure that the final inoculum density closely approximates the intended number (5×10^5 CFU/mL). The MIC was determined as the lowest concentration of compound that inhibited growth of the bacteria. The MBC was assessed by spreading 10 μL of culture collected from wells showing no visible growth on MH agar plates. […]

E. coli SA/2 = assay: Checkerboard synergy with CTX; type: cell-based
Description: (§2) The combined effect of compound 1 and CTX for E. coli SA/2, VAN for E. faecalis B3/101, COL for E. coli 2252, erythromycin for E. coli ATCC 25922, and OXA for S. aureus 66/1 was evaluated by the checkerboard method. […] The interaction between compound 1 and erythromycin was assessed for E. coli ATCC 25922. Gram-negative bacteria are intrinsically resistant to erythromycin, a macrolide that inhibits protein synthesis, and cannot penetrate the outer membrane of Gram-negative bacteria, which is impermeable to hydrophobic antibiotics. Ascertain ceragenins have been previously described to be able to enhance the efficacy of such antibiotics, this possibility was investigated for compound 1 and a FICI of 0.6 was obtained.

E. coli 2252 = assay: Checkerboard synergy with COL; type: cell-based, Escherichia coli
Description: as §2

E. coli ATCC 25922 = assay: Bacterial biofilm formation inhibition (crystal violet); type: cell-based, Escherichia coli
Description: (§3) In an embodiment, the antibiofilm activity of compound 1 was performed as follows. Given its bactericidal effect, the impact of compound 1 on the biofilm formation of reference strains was studied.
(§4) The effect of compound 1 on bacterial biofilm formation was evaluated through quantification of total biomass, using the crystal violet method, as previously described ([FIG. 6]). […] A control with an appropriate concentration of DMSO, as well as a negative control (TSB alone) was included. Sterile 96-well flat-bottomed untreated polystyrene microtiter plates were used. After a 24 h incubation at 37 degrees C., the biofilms were heat-fixed for 1 h at 60 degrees C. and stained with 0.5% (v/v) crystal violet (Quimica Clinica Aplicada, Amposta, Spain) for 5 min. The stain was resolubilized with 33% (v/v) acetic acid (Acetic acid 100%, AppliChem, Darmstadt, Germany) and the biofilm biomass was quantified by measuring the absorbance of each sample at 570 nm in a microplate reader (Thermo Scientific Multiskan® EX, Thermo Fisher Scientific, Waltham, MA, USA). The background absorbance (TSB or TSB+1% glucose without inoculum) was subtracted from the absorbance of each sample and the data are presented as a percentage of control. Three independent assays were performed for reference strains, with triplicates for each experimental condition.

P. aeruginosa ATCC 27853 = assay: as above; type: cell-based, Pseudomonas aeruginosa; conditions: 2×MIC and MIC, 24 h
Description: as §3, §4

E. faecalis ATCC 29212 = assay: as above; type: cell-based, Enterococcus faecalis
Description: as §3, §4

C. albicans ATCC 10231 = assay: Ergosterol binding assay; type: cell-based, Candida albicans; conditions: 400 μg/mL ergosterol
Description: Ceragenins have been described to interact with the lipophilic environment of microbial membranes and ergosterol is the major sterol component of fungal plasma membrane, and the target of several antifungals. As such, in order to evaluate the ability of compound 1 to bind to membrane ergosterol of C. albicans ATCC 10231, MICs were determined in the absence and presence of exogenous ergosterol ([FIG. 10]). If the tested compound has the ability to perturb membrane integrity by binding to ergosterol, is expected that, in the presence of exogenous ergosterol, the compound binds to it, decreasing the amount of compound available to bind to membrane ergosterol, therefore increasing the MIC. Amphotericin B was used as a positive control for this assay and MICs obtained were 8 times higher in the presence of 400 μg/mL of exogenous ergosterol than in its absence (2 to 16 μg/mL, data not shown). […] The ability of compound 1 to bind to membrane ergosterol of C. albicans ATCC 10231, was evaluated by the ergosterol binding assay, as previously described. Briefly, MICs of compound 1 were determined by broth microdilution, as described above, in the absence and presence of ergosterol (Sigma-Aldrich, St. Louis, MO, USA) at a final concentration of 400 μg/mL. Ergosterol was prepared immediately before being added to the plates, by maceration and dissolution in DMSO. The formed emulsion was then homogenized, heated to increase solubility, and diluted in RPMI. Amphotericin B was used as positive control. Plates were incubated at 35° C. for 48 h and MICs were determined as described above. At least two independent assays were performed.

[4] = test system: marine biofilm-forming bacterial strains; conditions: cited from earlier work

C[C@H](CCC(=O)NCCN)[C@H]1CC[C@H]2[C@@H]3CC[C@@H]4C[C@H](O)CC[C@]4(C)[C@H]3C[C@H](O)[C@]12C [Compound 1, (R)—N-(2-aminoethyl)-4-((3R,5R,8R,9S,10S,12S,13R,14S,17R)-3,12-dihydroxy-10,13-dimethylhexadecahydro-1H-cyclopenta[a]phenanthren-17-yl) pentanamida]
Disk diffusion (E. coli SA/2 (ESBL)): 8 mm | Disk diffusion [1]: 8 mm | Disk diffusion [2]: 8 mm | Disk diffusion [3]: 13 mm | Disk diffusion (S. aureus 66/1 (MRSA)): 11 mm | combined effect with CTX (in words) (E. coli SA/2): No synergistic interactions | combined effect with COL (in words) (E. coli 2252; checkerboard, E. coli 2252): No synergistic interactions | fractional inhibitory concentration index (FICI) (E. coli 2252; with COL, E. coli 2252 (mcr-1)): 0.6 | biofilm formation (in words) (E. coli ATCC 25922; 2×MIC and MIC, 24 h): significantly inhibited | minimal biofilm inhibitory concentration (MBIC) (E. coli ATCC 25922; 80% reduction of biofilm formation, E. coli ATCC 25922): < 8 µg/mL | biofilm formation (in words) (P. aeruginosa ATCC 27853): significantly inhibited | biofilm formation (in words) (E. faecalis ATCC 29212; 2×MIC and MIC, 24 h): significantly inhibited | minimal biofilm inhibitory concentration (MBIC) (E. faecalis ATCC 29212; 80% reduction of biofilm formation, E. faecalis ATCC 29212): < 4 µg/mL | effect of exogenous ergosterol on MICs (in words) (C. albicans ATCC 10231): unaffected | activity against growth of marine biofilm-forming bacterial strains (in words) [4]: active
